In PMC11784839, “Monoaminergic neurotransmitters are bimodal effectors of tau aggregation” (Science Advances, 2025):

Target: tau (Homo sapiens, UniProt P10636)
Experiment: MCE Phenols Library screening, tau biosensor cell seeding assay (AvZ)
Format: cell-based
Settings: for Z repl 1 / Z Repl 2: Z score; for Z repl 1 / raw data 1: replicate 1; for Z Repl 2 / raw data 2: replicate 2; for AvZ (average z score of seeding, SDs from the mean level of seeding): 10 μM phenol in cell cultures, AD brain homogenate preincubated 16 hours, two biological replicates, positive = catalyzes seeding, negative = inhibits
[1] = average Z score of two replicates, Phenols Library screen
[2] = average Z score of the two replicates, tau seeding
[3] = average Z score of the two replicates, MCE Phenols Library screen
[4] = average puncta of the two replicates
[5] = average Z score of the two replicates, tau biosensor seeding, MCE Phenols Library screen

Sequence of tau (P10636 623-695 limits assumed): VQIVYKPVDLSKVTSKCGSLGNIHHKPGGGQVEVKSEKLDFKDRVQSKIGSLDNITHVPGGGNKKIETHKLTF

CC(C)c1cc2c(c(O)c1O)[C@@]13CCCC(C)(C)[C@@H]1C[C@@H]2OC3=O [Carnosol] was tested, and the “Z repl 1” value was 0.436, the “Z Repl 2” value was -0.449 and the “av Z” value [1] was -0.006. For the same molecule, the av puncta (average of raw data 1 and 2) was 19780.5, the “raw data 1” value (puncta) was 31586 and the “raw data 2” value (puncta) was 7974.93.
For O=C(/C=C/c1ccc(O)cc1)c1ccc(O[C@@H]2O[C@H](CO)[C@@H](O)[C@H](O)[C@H]2O)cc1O [Neoisoliquiritin], the “Z repl 1” value was -0.046, the “Z Repl 2” value was 0.369 and the “av Z” value [2] was 0.161. For the same molecule, the av puncta (average of raw data 1 and 2) was 21249.5, the “raw data 1” value (puncta) was 25794.8 and the “raw data 2” value (puncta) was 16704.1.
In the case of CC1=CC(=O)c2c(O)cccc2C1=O [Plumbagin], the “Z repl 1” value is reported as -2.104, the “Z Repl 2” value is reported as -0.904 and the “av Z” value [3] is reported as -1.504. The av puncta (average of raw data 1 and 2) was 2099.32, the “raw data 1” value (puncta) was 1092.19 and the “raw data 2” value (puncta) was 3106.45.
In the case of O=C(O)c1cccc(O)c1O [Pyrocatechuic acid], the “AvZ (average z score of seeding, SDs from the mean level of seeding)” value (from here on “AvZ”) is reported as -0.338, the “Z repl 1” value is reported as -0.028 and the “Z Repl 2” value is reported as -0.648. The av puncta [4] was 15926.2, the “raw data 1” value (raw puncta) was 26009.1 and the “raw data 2” value (raw puncta) was 5843.4.
O=c1c(O)c(-c2ccc(O)c(O)c2)oc2cc(O)c(O)c(O)c12 [Quercetagetin] was tested, and the “Z repl 1” value was -1.958, the “Z Repl 2” value was -1.183 and the “av Z” value [3] was -1.57. For the same molecule, the av puncta (average of raw data 1 and 2) was 1487.44, the “raw data 1” value (puncta) was 2842.17 and the “raw data 2” value (puncta) was 132.721.
For COc1cc(-c2oc3cc(O)cc(O)c3c(=O)c2O)ccc1O [Isorhamnetin], the “Z repl 1” value was 0.124, the “Z Repl 2” value was -0.648 and the “av Z” value [3] was -0.262. For the same molecule, the av puncta [4] was 16840.7, the “raw data 1” value (raw puncta) was 27835.2 and the “raw data 2” value (raw puncta) was 5846.21.
O=C(O)[C@H]1O[C@@H](Oc2c(-c3ccc(O)c(O)c3)oc3cc(O)cc(O)c3c2=O)[C@H](O)[C@@H](O)[C@@H]1O [Miquelianin] was tested, and the “Z repl 1” value was 1.087, the “Z Repl 2” value was 0.729 and the “av Z” value [5] was 0.908. The av puncta (average of raw data 1 and 2) was 29978.8, the “raw data 1” value (puncta) was 39402.1 and the “raw data 2” value (puncta) was 20555.6.
O=C(/C=C/c1ccc(O)c(O)c1)O[C@@H]1C[C@@](O)(C(=O)O)C[C@@H](O)[C@@H]1O [Neochlorogenic acid] was tested, and the “Z repl 1” value was -0.752, the “Z Repl 2” value was -0.408 and the “av Z” value [3] was -0.58. For the same molecule, the av puncta [4] was 12870.1, the “raw data 1” value (puncta) was 17326.7 and the “raw data 2” value (puncta) was 8413.44.
For O=c1c(O)c(-c2ccc(O)cc2)oc2cc(O)cc(O)c12 [Kaempferol], the “Z repl 1” value was -0.004, the “Z Repl 2” value was -0.903 and the “av Z” value [3] was -0.454. The av puncta [4] was 14707.1, the “raw data 1” value (raw puncta) was 26297.7 and the “raw data 2” value (raw puncta) was 3116.65.
For O=C(O)[C@H]1O[C@@H](Oc2c(-c3ccc(O)cc3)oc3cc(O)cc(O)c3c2=O)[C@H](O)[C@@H](O)[C@@H]1O [Kaempferol 3-O-?-D-glucuronide], the “Z repl 1” value was 0.499, the “Z Repl 2” value was 0.597 and the “av Z” value [2] was 0.548. The av puncta (average of raw data 1 and 2) was 25744.8, the “raw data 1” value (puncta) was 32345.4 and the “raw data 2” value (puncta) was 19144.3.
O=c1c(O[C@@H]2OC[C@H](O)[C@H](O)[C@H]2O)c(-c2ccc(O)c(O)c2)oc2cc(O)cc(O)c12 [Guaijaverin] was tested, and the “Z repl 1” value was -0.067, the “Z Repl 2” value was -0.383 and the “av Z” value [3] was -0.225. For the same molecule, the av puncta [4] was 17108.5, the “raw data 1” value (raw puncta) was 25544.8 and the “raw data 2” value (raw puncta) was 8672.24.
For COc1ccc(C(C)=O)c(O)c1O [2,3-Dihydroxy-4-methoxyacetophenone], the “AvZ” value was 0.13, the “Z repl 1” value was 0.385 and the “Z Repl 2” value was -0.124. The av puncta (average of raw data 1 and 2) was 21205.2, the “raw data 1” value (puncta) was 30969.9 and the “raw data 2” value (puncta) was 11440.6.
For COc1cc(O)c(C(=O)/C=C/c2ccccc2)c(OC)c1 [Flavokawain B], the “Z repl 1” value was -0.296, the “Z Repl 2” value was -0.062 and the “av Z” value [1] was -0.179. The av puncta (average of raw data 1 and 2) was 17449.7, the “raw data 1” value (puncta) was 22793.1 and the “raw data 2” value (puncta) was 12106.3.
With O=c1cc(-c2ccc(O)cc2)oc2cc(O)c([C@@H]3O[C@H](CO)[C@@H](O)[C@H](O)[C@H]3O)c(O)c12 [Isovitexin] the “Z repl 1” value was 0.953, the “Z Repl 2” value was 1.769 and the “av Z” value [5] was 1.361. The av puncta (average of raw data 1 and 2) was 34727.5, the “raw data 1” value (puncta) was 37791.5 and the “raw data 2” value (puncta) was 31663.6.
With C=C(C)[C@H](CC=C(C)C)Cc1c(O)cc(O)c2c1O[C@H](c1ccc(O)cc1OC)CC2=O [Leachianone A] the “Z repl 1” value was -0.298, the “Z Repl 2” value was 0.052 and the “av Z” value [1] was -0.123. For the same molecule, the av puncta (average of raw data 1 and 2) was 18045.6, the “raw data 1” value (puncta) was 22771.5 and the “raw data 2” value (puncta) was 13319.6.
For O=C(O)C(O)Cc1ccc(O)cc1 (stereo not drawn) [Hydroxyphenyllactic acid], the “AvZ” value was 0.039, the “Z repl 1” value was -0.248 and the “Z Repl 2” value was 0.325. For the same molecule, the av puncta (average of raw data 1 and 2) was 19806.4, the “raw data 1” value (puncta) was 23372.2 and the “raw data 2” value (puncta) was 16240.5.
With COc1cc([C@@H]2Oc3c(O)cc([C@H]4Oc5cc(O)cc(O)c5C(=O)[C@@H]4O)cc3[C@H]2CO)ccc1O [Silychristin] the “Z repl 1” value was 0.429, the “Z Repl 2” value was -0.406 and the “av Z” value [1] was 0.012. The av puncta (average of raw data 1 and 2) was 19966.5, the “raw data 1” value (puncta) was 31503 and the “raw data 2” value (puncta) was 8429.95.
O=C(C=Cc1ccc(O)c(O)c1)OC1CC(OC(=O)C=Cc2ccc(O)c(O)c2)(C(=O)O)CC(O)C1O (stereo not drawn) [1,3-Dicaffeoylquinic acid] was tested, and the “Z repl 1” value was -1.077, the “Z Repl 2” value was -0.588 and the “av Z” value [3] was -0.832. The av puncta (average of raw data 1 and 2) was 9954.06, the “raw data 1” value (puncta) was 13417.7 and the “raw data 2” value (puncta) was 6490.43.
For CC(=O)O[C@@H](CC=C(C)C)C1=CC(=O)c2c(O)ccc(O)c2C1=O [Acetylalkannin], the “Z repl 1” value was -0.759, the “Z Repl 2” value was -0.292 and the “av Z” value [3] was -0.525. The av puncta [4] was 13443.1, the “raw data 1” value (puncta) was 17242.7 and the “raw data 2” value (puncta) was 9643.51.
For COc1cc(/C=C/COC(=O)/C=C/c2ccc(O)c(OC)c2)ccc1O [Coniferyl ferulate], the “Z repl 1” value was 0.368, the “Z Repl 2” value was -0.434 and the “av Z” value [1] was -0.033. The av puncta (average of raw data 1 and 2) was 19449.2, the “raw data 1” value (puncta) was 30768 and the “raw data 2” value (puncta) was 8130.42.
For O=C(/C=C/c1ccc(O)c(O)c1)c1ccc(O)c(O)c1O [Okanin], the “Z repl 1” value was -1.882, the “Z Repl 2” value was -1.187 and the “av Z” value [3] was -1.534. For the same molecule, the av puncta (average of raw data 1 and 2) was 1923.27, the “raw data 1” value (puncta) was 3755.83 and the “raw data 2” value (puncta) was 90.703.
COc1cc(C(=O)OCCCCNC(=N)N)cc(OC)c1O [Leonurine] was tested, and the “AvZ” value was 1.35, the “Z repl 1” value was 1.449 and the “Z Repl 2” value was 1.251. The av puncta (average of raw data 1 and 2) was 34936.6, the “raw data 1” value (puncta) was 43747.9 and the “raw data 2” value (puncta) was 26125.3.
For O=c1cc(-c2ccc(O)cc2)oc2c([C@@H]3O[C@H](CO)[C@@H](O[C@@H]4O[C@H](CO)[C@@H](O)[C@H](O)[C@H]4O)[C@H](O)[C@H]3O)c(O)cc(O)c12 [Vitexin-4''-O-glucoside], the “Z repl 1” value was 0.632, the “Z Repl 2” value was -0.232 and the “av Z” value [2] was 0.2. The av puncta (average of raw data 1 and 2) was 22113, the “raw data 1” value (puncta) was 33940.8 and the “raw data 2” value (puncta) was 10285.2.
In the case of COc1ccc(C=O)cc1 [4-Methoxybenzaldehyde], the “AvZ” value is reported as 0.308, the “Z repl 1” value is reported as -0.17 and the “Z Repl 2” value is reported as 0.786. For the same molecule, the av puncta (average of raw data 1 and 2) was 22737.8, the “raw data 1” value (puncta) was 24311 and the “raw data 2” value (puncta) was 21164.6.
C=CCc1ccc(O)c(-c2cc(CC=C)ccc2O)c1 [Magnolol] was tested, and the “Z repl 1” value was 0.295, the “Z Repl 2” value was 1.074 and the “av Z” value [2] was 0.685. For the same molecule, the av puncta (average of raw data 1 and 2) was 27065.9, the “raw data 1” value (puncta) was 29891.7 and the “raw data 2” value (puncta) was 24240.1.
O=c1cc(-c2ccccc2)oc2c(O)c(O)ccc12 [7,8-Dihydroxyflavone] was tested, and the “Z repl 1” value was 1.412, the “Z Repl 2” value was 0.928 and the “av Z” value [5] was 1.17. The av puncta (average of raw data 1 and 2) was 32989.2, the “raw data 1” value (puncta) was 43302.3 and the “raw data 2” value (puncta) was 22676.
For OC[C@H]1O[C@@H](Oc2cc3c(O)cc(O)cc3[o+]c2-c2ccc(O)c(O)c2)[C@H](O[C@@H]2OC[C@@H](O)[C@H](O)[C@H]2O)[C@@H](O)[C@@H]1O.[Cl-] [Cyanidin 3-sambubioside (chloride)], the “Z repl 1” value was -0.124, the “Z Repl 2” value was -1.008 and the “av Z” value [3] was -0.566. For the same molecule, the av puncta [4] was 13432.8, the “raw data 1” value (puncta) was 24866.3 and the “raw data 2” value (puncta) was 1999.21.
Isoliquiritin apioside was tested, and the “Z repl 1” value was 0.567, the “Z Repl 2” value was -0.451 and the “av Z” value [1] was 0.058. The av puncta (average of raw data 1 and 2) was 20550.8, the “raw data 1” value (puncta) was 33153.4 and the “raw data 2” value (puncta) was 7948.29.
O=C(O)c1cc(O)c2cccc(O)c2n1 [Xanthurenic acid] was tested, and the “Z repl 1” value was 0.734, the “Z Repl 2” value was 1.586 and the “av Z” value [5] was 1.16. The av puncta (average of raw data 1 and 2) was 32429.6, the “raw data 1” value (puncta) was 35156.1 and the “raw data 2” value (puncta) was 29703.1.
O=c1c(O[C@@H]2O[C@H](CO)[C@@H](O)[C@H](O)[C@H]2O[C@@H]2O[C@H](CO)[C@@H](O)[C@H](O)[C@H]2O)c(-c2ccc(O)c(O)c2)oc2cc(O)cc(O)c12 [Baimaside] was tested, and the “Z repl 1” value was 1.152, the “Z Repl 2” value was 0.927 and the “av Z” value [5] was 1.04. The av puncta (average of raw data 1 and 2) was 31424.7, the “raw data 1” value (puncta) was 40179 and the “raw data 2” value (puncta) was 22670.4.
With O=c1c(O)c(-c2ccc(O)c(O)c2)oc2c(O[C@@H]3O[C@H](CO)[C@@H](O)[C@H](O)[C@H]3O)c(O)cc(O)c12 [Gossypin] the “Z repl 1” value was -0.561, the “Z Repl 2” value was -0.884 and the “av Z” value [3] was -0.722. The av puncta [4] was 11471.3, the “raw data 1” value (puncta) was 19618.8 and the “raw data 2” value (puncta) was 3323.85.
For Oc1ccc2[nH]ccc2c1 [5-Hydroxyindole], the “AvZ” value was -0.616, the “Z repl 1” value was -0.683 and the “Z Repl 2” value was -0.549. The av puncta [4] was 12522.7, the “raw data 1” value (puncta) was 18144.2 and the “raw data 2” value (puncta) was 6901.21.
